Patent US10765114B2, “4-amino-6-(pyridyl and 2-substitutedphenyl)-picolinates and 6-amino-2-(pyridyl and 2-substitutedphenyl)-pyrimidine-4-carboxylates and their use as herbicides” (Dow AgroSciences LLC, priority 2013, dated 2020)

Test system: Key Broadleaf Weed and Crop Species
Test: Post-Emergent Test II (Table 5)
Assay type: in vivo
Settings: Abutilon theophrasti, post-emergence, 336 h, ABUTH: velvetleaf (Abutilon theophrasti), application rate 70 (kg ai/ha; footnote: g ai/ha), read-out: Visual Growth Reduction (%) 14 Days After Application ABUTH
In short: (§1)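 Plants at first or second true-leaf stage, grown 7-21 days in greenhouse, were sprayed post-emergence at 187 L/ha with compounds in acetone/DMSO/water/crop oil/surfactant mixture at the high rate and ½× to 1/16× dilutions. Injury scored visually after 14 days, 0 (none) to 100% (complete kill), versus untreated plants.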

| Compound | pest or weed control at 70 g/ha [%] |
| --- | --- |
| COC(=O)c1nc(-c2ccc(Cl)c(Cl)c2C)cc(N)c1Cl [Compound 77] | 95 to 100 |

Same assay, conditions: Abutilon theophrasti, post-emergence, 336 h, ABUTH: velvetleaf (Abutilon theophrasti), application rate 140 (kg ai/ha; footnote: g ai/ha), read-out: Visual Growth Reduction (%) 14 Days After Application ABUTH

| Compound | pest or weed control at 140 g/ha [%] |
| --- | --- |
| COC(=O)c1nc(-c2ccc(Cl)c(Cl)c2C)cc(N)c1Cl [Compound 77] | 95 to 100 |

Same assay, conditions: Amaranthus retroflexus, post-emergence, 336 h, AMARE: redroot pigweed (Amaranthus retroflexus), application rate 70 (kg ai/ha; footnote: g ai/ha), read-out: Visual Growth Reduction (%) 14 Days After Application AMARE

| Compound | pest or weed control at 70 g/ha [%] |
| --- | --- |
| COC(=O)c1nc(-c2ccc(Cl)c(Cl)c2C)cc(N)c1Cl [Compound 77] | 95 to 100 |

Same assay, conditions: Amaranthus retroflexus, post-emergence, 336 h, AMARE: redroot pigweed (Amaranthus retroflexus), application rate 140 (kg ai/ha; footnote: g ai/ha), read-out: Visual Growth Reduction (%) 14 Days After Application AMARE

| Compound | pest or weed control at 140 g/ha [%] |
| --- | --- |
| COC(=O)c1nc(-c2ccc(Cl)c(Cl)c2C)cc(N)c1Cl [Compound 77] | 95 to 100 |

Same assay, conditions: Brassica napus, post-emergence, 336 h, BRSSS: oilseed rape, canola (Brassica napus), application rate 70 (kg ai/ha; footnote: g ai/ha), read-out: Visual Growth Reduction (%) 14 Days After Application BRSSS

| Compound | pest or weed control at 70 g/ha [%] |
| --- | --- |
| COC(=O)c1nc(-c2ccc(Cl)c(Cl)c2C)cc(N)c1Cl [Compound 77] | 95 to 100 |

Same assay, conditions: Brassica napus, post-emergence, 336 h, BRSSS: oilseed rape, canola (Brassica napus), application rate 140 (kg ai/ha; footnote: g ai/ha), read-out: Visual Growth Reduction (%) 14 Days After Application BRSSS

| Compound | pest or weed control at 140 g/ha [%] |
| --- | --- |
| COC(=O)c1nc(-c2ccc(Cl)c(Cl)c2C)cc(N)c1Cl [Compound 77] | 95 to 100 |

Same assay, conditions: Chenopodium album, post-emergence, 336 h, CHEAL: lambsquarters (Chenopodium album), application rate 70 (kg ai/ha; footnote: g ai/ha), read-out: Visual Growth Reduction (%) 14 Days After Application CHEAL

| Compound | pest or weed control at 70 g/ha [%] |
| --- | --- |
| COC(=O)c1nc(-c2ccc(Cl)c(Cl)c2C)cc(N)c1Cl [Compound 77] | 95 to 100 |

Same assay, conditions: Chenopodium album, post-emergence, 336 h, CHEAL: lambsquarters (Chenopodium album), application rate 140 (kg ai/ha; footnote: g ai/ha), read-out: Visual Growth Reduction (%) 14 Days After Application CHEAL

| Compound | pest or weed control at 140 g/ha [%] |
| --- | --- |
| COC(=O)c1nc(-c2ccc(Cl)c(Cl)c2C)cc(N)c1Cl [Compound 77] | 95 to 100 |

Same assay, conditions: Euphorbia heterophylla, post-emergence, 336 h, EPHHL: wild poinsettia (Euphorbia heterophylla), application rate 70 (kg ai/ha; footnote: g ai/ha), read-out: Visual Growth Reduction (%) 14 Days After Application EPHHL

| Compound | pest or weed control at 70 g/ha [%] |
| --- | --- |
| COC(=O)c1nc(-c2ccc(Cl)c(Cl)c2C)cc(N)c1Cl [Compound 77] | 0 to 29 |

Same assay, conditions: Euphorbia heterophylla, post-emergence, 336 h, EPHHL: wild poinsettia (Euphorbia heterophylla), application rate 140 (kg ai/ha; footnote: g ai/ha), read-out: Visual Growth Reduction (%) 14 Days After Application EPHHL

| Compound | pest or weed control at 140 g/ha [%] |
| --- | --- |
| COC(=O)c1nc(-c2ccc(Cl)c(Cl)c2C)cc(N)c1Cl [Compound 77] | 0 to 29 |

Same assay, conditions: Helianthus annuus, post-emergence, 336 h, HELAN: sunflower (Helianthus annuus), application rate 70 (kg ai/ha; footnote: g ai/ha), read-out: Visual Growth Reduction (%) 14 Days After Application HELAN

| Compound | pest or weed control at 70 g/ha [%] |
| --- | --- |
| COC(=O)c1nc(-c2ccc(Cl)c(Cl)c2C)cc(N)c1Cl [Compound 77] | 45 to 59 |

Same assay, conditions: Helianthus annuus, post-emergence, 336 h, HELAN: sunflower (Helianthus annuus), application rate 140 (kg ai/ha; footnote: g ai/ha), read-out: Visual Growth Reduction (%) 14 Days After Application HELAN

| Compound | pest or weed control at 140 g/ha [%] |
| --- | --- |
| COC(=O)c1nc(-c2ccc(Cl)c(Cl)c2C)cc(N)c1Cl [Compound 77] | 60 to 74 |

Same assay, conditions: Viola tricolor, post-emergence, 336 h, VIOTR: wild pansy (Viola tricolor), application rate 70 (kg ai/ha; footnote: g ai/ha), read-out: Visual Growth Reduction (%) 14 Days After Application VIOTR

| Compound | pest or weed control at 70 g/ha [%] |
| --- | --- |
| COC(=O)c1nc(-c2ccc(Cl)c(Cl)c2C)cc(N)c1Cl [Compound 77] | 0 to 29 |

Same assay, conditions: Viola tricolor, post-emergence, 336 h, VIOTR: wild pansy (Viola tricolor), application rate 140 (kg ai/ha; footnote: g ai/ha), read-out: Visual Growth Reduction (%) 14 Days After Application VIOTR

| Compound | pest or weed control at 140 g/ha [%] |
| --- | --- |
| COC(=O)c1nc(-c2ccc(Cl)c(Cl)c2C)cc(N)c1Cl [Compound 77] | 0 to 29 |

Test system: Key Grass and Sedge Weeds as well as Grass Crops
Test: Post-Emergent Test II (Table 6)
Assay type: in vivo
Settings: post-emergence, 336 h, CYPSS, 70 g ai/ha, 14 days after application, read-out: Visual Growth Reduction (%) 14 Days After Application CYPSS
In short: as §1

| Compound | pest or weed control at 70 g/ha [%] |
| --- | --- |
| COC(=O)c1nc(-c2ccc(Cl)c(Cl)c2C)cc(N)c1Cl [Compound 77] | 0 to 29 |

Same assay, conditions: post-emergence, 336 h, CYPSS, 140 g ai/ha, 14 days after application, read-out: Visual Growth Reduction (%) 14 Days After Application CYPSS

| Compound | pest or weed control at 140 g/ha [%] |
| --- | --- |
| COC(=O)c1nc(-c2ccc(Cl)c(Cl)c2C)cc(N)c1Cl [Compound 77] | 0 to 29 |

Same assay, conditions: post-emergence, 336 h, DIGSA: crabgrass (Digitaria sanguinalis), 70 g ai/ha, 14 days after application, read-out: Visual Growth Reduction (%) 14 Days After Application DIGSA

| Compound | pest or weed control at 70 g/ha [%] |
| --- | --- |
| COC(=O)c1nc(-c2ccc(Cl)c(Cl)c2C)cc(N)c1Cl [Compound 77] | 0 to 29 |

Same assay, conditions: post-emergence, 336 h, DIGSA: crabgrass (Digitaria sanguinalis), 140 g ai/ha, 14 days after application, read-out: Visual Growth Reduction (%) 14 Days After Application DIGSA

| Compound | pest or weed control at 140 g/ha [%] |
| --- | --- |
| COC(=O)c1nc(-c2ccc(Cl)c(Cl)c2C)cc(N)c1Cl [Compound 77] | 0 to 29 |

Same assay, conditions: post-emergence, 336 h, ECHSS, 70 g ai/ha, 14 days after application, read-out: Visual Growth Reduction (%) 14 Days After Application ECHSS

| Compound | pest or weed control at 70 g/ha [%] |
| --- | --- |
| COC(=O)c1nc(-c2ccc(Cl)c(Cl)c2C)cc(N)c1Cl [Compound 77] | 0 to 29 |

Same assay, conditions: post-emergence, 336 h, ECHSS, 140 g ai/ha, 14 days after application, read-out: Visual Growth Reduction (%) 14 Days After Application ECHSS

| Compound | pest or weed control at 140 g/ha [%] |
| --- | --- |
| COC(=O)c1nc(-c2ccc(Cl)c(Cl)c2C)cc(N)c1Cl [Compound 77] | 0 to 29 |

Same assay, conditions: post-emergence, 336 h, ORYSS (crop), 70 g ai/ha, 14 days after application, read-out: Visual Growth Reduction (%) 14 Days After Application ORYSS

| Compound | pest or weed control at 70 g/ha [%] |
| --- | --- |
| COC(=O)c1nc(-c2ccc(Cl)c(Cl)c2C)cc(N)c1Cl [Compound 77] | 0 to 29 |

Same assay, conditions: post-emergence, 336 h, ORYSS (crop), 140 g ai/ha, 14 days after application, read-out: Visual Growth Reduction (%) 14 Days After Application ORYSS

| Compound | pest or weed control at 140 g/ha [%] |
| --- | --- |
| COC(=O)c1nc(-c2ccc(Cl)c(Cl)c2C)cc(N)c1Cl [Compound 77] | 0 to 29 |

Same assay, conditions: post-emergence, 336 h, SETFA: giant foxtail (Setaria faberi), 70 g ai/ha, 14 days after application, read-out: Visual Growth Reduction (%) 14 Days After Application SETFA

| Compound | pest or weed control at 70 g/ha [%] |
| --- | --- |
| COC(=O)c1nc(-c2ccc(Cl)c(Cl)c2C)cc(N)c1Cl [Compound 77] | 0 to 29 |

Same assay, conditions: post-emergence, 336 h, SETFA: giant foxtail (Setaria faberi), 140 g ai/ha, 14 days after application, read-out: Visual Growth Reduction (%) 14 Days After Application SETFA

| Compound | pest or weed control at 140 g/ha [%] |
| --- | --- |
| COC(=O)c1nc(-c2ccc(Cl)c(Cl)c2C)cc(N)c1Cl [Compound 77] | 0 to 29 |

Same assay, conditions: post-emergence, 336 h, SORVU: grain sorghum (Sorghum vulgare), 70 g ai/ha, 14 days after application, read-out: Visual Growth Reduction (%) 14 Days After Application SORVU

| Compound | pest or weed control at 70 g/ha [%] |
| --- | --- |
| COC(=O)c1nc(-c2ccc(Cl)c(Cl)c2C)cc(N)c1Cl [Compound 77] | 0 to 29 |

Same assay, conditions: post-emergence, 336 h, SORVU: grain sorghum (Sorghum vulgare), 140 g ai/ha, 14 days after application, read-out: Visual Growth Reduction (%) 14 Days After Application SORVU

| Compound | pest or weed control at 140 g/ha [%] |
| --- | --- |
| COC(=O)c1nc(-c2ccc(Cl)c(Cl)c2C)cc(N)c1Cl [Compound 77] | 0 to 29 |

Same assay, conditions: post-emergence, 336 h, TRZSS (crop), 70 g ai/ha, 14 days after application, read-out: Visual Growth Reduction (%) 14 Days After Application TRZSS

| Compound | pest or weed control at 70 g/ha [%] |
| --- | --- |
| COC(=O)c1nc(-c2ccc(Cl)c(Cl)c2C)cc(N)c1Cl [Compound 77] | 0 to 29 |

Same assay, conditions: post-emergence, 336 h, TRZSS (crop), 140 g ai/ha, 14 days after application, read-out: Visual Growth Reduction (%) 14 Days After Application TRZSS

| Compound | pest or weed control at 140 g/ha [%] |
| --- | --- |
| COC(=O)c1nc(-c2ccc(Cl)c(Cl)c2C)cc(N)c1Cl [Compound 77] | 0 to 29 |

Same assay, conditions: post-emergence, 336 h, ZEAMX: maize, corn (Zea mays), 70 g ai/ha, 14 days after application, read-out: Visual Growth Reduction (%) 14 Days After Application ZEAMX

| Compound | pest or weed control at 70 g/ha [%] |
| --- | --- |
| COC(=O)c1nc(-c2ccc(Cl)c(Cl)c2C)cc(N)c1Cl [Compound 77] | 0 to 29 |

Same assay, conditions: post-emergence, 336 h, ZEAMX: maize, corn (Zea mays), 140 g ai/ha, 14 days after application, read-out: Visual Growth Reduction (%) 14 Days After Application ZEAMX

| Compound | pest or weed control at 140 g/ha [%] |
| --- | --- |
| COC(=O)c1nc(-c2ccc(Cl)c(Cl)c2C)cc(N)c1Cl [Compound 77] | 0 to 29 |

Test system: not given
Test: not given
Settings: not given

| melting point [°C] | Compound |
| --- | --- |
| 136 to 142 | COC(=O)c1nc(-c2ccc(Cl)c(Cl)c2C)cc(N)c1Cl [Compound 77] |
